The results in this text go back to ChEMBL document CHEMBL4251708, “Synthesis and Biological Screening of Pyrano[3,2-c]quinoline Analogues as Anti-inflammatory and Anticancer Agents” (ACS Med Chem Lett, 2018).

Series [1] has as its system THP-1 (Homo sapiens). Put plainly: Antiinflammatory activity in human THP1 cells assessed as inhibition of TNF-alpha production at 10 uM relative to control. More on the design: scale not given: the % may be the effect or the level left.
For another series, the system named is PBMC. The experiment in a line: Antiinflammatory activity in human PBMC assessed as inhibition of LPS-induced TNF-alpha production incubated for 30 mins followed by LPS addition measured after 4.5 hrs by ELISA. Type of series: functional, cell-based. For orientation: ELISA stands for enzyme-linked immunosorbent assay.
Series [2] concerns MDA-MB-231 (Homo sapiens). Put plainly: Antiproliferative activity against human MDA-MB-231 cells at 10 uM relative to control.
Series [3] concerns THP-1. Put plainly: Antiinflammatory activity in PMA-differentiated human THP1 cells assessed as inhibition of LPS-induced IL-6 production after 24 hrs by ELISA. Type of series: functional, cell-based. Particulars: THP-1, 24 h.
Series [4] relates to MDA-MB-231 (Homo sapiens). Put plainly: Antiproliferative activity against human MDA-MB-231 cells at 1 uM relative to control. Particulars: mda-mb-231, 1 µM.
In series [5] the test system is PANC-1. Put plainly: Antiproliferative activity against human PANC1 cells after 48 hrs by propidium iodide staining based fluorometry. The class given is functional, cell-based. Particulars: PANC-1, 48 h.
For series [6], the system named is ACHN. The experiment in a line: Antiproliferative activity against human ACHN cells after 48 hrs by propidium iodide staining based fluorometry. Type of series: functional, cell-based.
Series [7] has as its system THP-1. The experiment in a line: Antiinflammatory activity in PMA-differentiated human THP1 cells assessed as inhibition of LPS-induced TNF-alpha production after 24 hrs by ELISA. Type of series: functional, cell-based. The following applies: THP-1, 24 h.
The test system of series [8] is THP-1. The experiment in a line: Antiinflammatory activity in PMA-differentiated human THP1 cells assessed as inhibition of LPS-induced TNF-alpha production at 1 uM after 24 hrs by ELISA relative to control. The class given is functional. The following applies: THP-1, 24 h.
Series [9] deals with THP-1. The experiment in a line: Antiinflammatory activity in PMA-differentiated human THP1 cells assessed as inhibition of LPS-induced TNF-alpha production at 10 uM after 24 hrs by ELISA relative to control. Type of series: functional. The following applies: THP-1, 24 h.
Series [10] relates to NCI-H460. The experiment in a line: Antiproliferative activity against human H460 cells after 48 hrs by propidium iodide staining based fluorometry. The class given is functional, cell-based. Particulars: NCI-H460, 48 h.
Series [11] deals with Calu-1. The experiment in a line: Antiproliferative activity against human Calu1 cells after 48 hrs by propidium iodide staining based fluorometry. Type of series: functional, cell-based. The following applies: Calu-1, 48 h.
The subject of series [12] is MIA PaCa-2 (Homo sapiens). The experiment in a line: Antiproliferative activity against human MIA PaCa-2 cells at 1 uM relative to control.
The next series deals with MIA PaCa-2. The experiment in a line: Antiproliferative activity against human MIAPaCa2 cells at 10 uM relative to control. Type of series: functional.
Series [13] has as its system ACHN (Homo sapiens). Put plainly: Antiproliferative activity against human ACHN cells at 10 uM relative to control.
Series [14] concerns THP-1. Put plainly: Antiinflammatory activity in PMA-differentiated human THP1 cells assessed as inhibition of LPS-induced IL-6 production at 10 uM after 24 hrs by ELISA relative to control. Type of series: functional. Particulars: THP-1, 24 h.
The subject of series [15] is THP-1. The experiment in a line: Cytotoxicity against PMA-differentiated human THP1 cells assessed as reduction in cell viability after 4.5 hrs by MTS assay. Type of series: cell-based. Particulars: THP-1, 4.5 h.
For series [16], the system named is ACHN (Homo sapiens). The experiment in a line: Antiproliferative activity against human ACHN cells at 1 uM relative to control.
The test system of the next series is A-549 (Homo sapiens). Put plainly: Antiproliferative activity against human A-549 cells at 10 uM relative to control.
Series [17] has as its system THP-1. Put plainly: Antiinflammatory activity in PMA-differentiated human THP1 cells assessed as inhibition of LPS-induced IL-6 production at 1 uM after 24 hrs by ELISA relative to control. Type of series: functional. The following applies: THP-1, 24 h.
In series [18] the test system is THP-1 (Homo sapiens). Put plainly: Antiinflammatory activity in human THP1 cells assessed as inhibition of IL-6 production at 10 uM relative to control. More on the design: scale not given: the % may be the effect or the level left.
Series [19] relates to HCT-116. The experiment in a line: Antiproliferative activity against human HCT116 cells after 48 hrs by propidium iodide staining based fluorometry. The following applies: HCT-116, 48 h. Type of series: functional, cell-based.
Series [20] deals with ACHN. Put plainly: Antiproliferative activity against human ACHN cells at 10 uM relative to control. The class given is functional.
In series [21] the test system is ACHN. Put plainly: Antiproliferative activity against human ACHN cells at 700 nM after 48 hrs by propidium iodide staining based fluorometry relative to control. Type of series: functional.
In series [22] the test system is PANC-1. The experiment in a line: Antiproliferative activity against human PANC1 cells at 700 nM after 48 hrs by propidium iodide staining based fluorometry relative to control. The class given is functional.
The subject of series [23] is Calu-1. Put plainly: Antiproliferative activity against human Calu1 cells at 700 nM after 48 hrs by propidium iodide staining based fluorometry relative to control. The class given is functional.
The subject of series [24] is HCT-116. Put plainly: Antiproliferative activity against human HCT116 cells at 700 nM after 48 hrs by propidium iodide staining based fluorometry relative to control. The class given is functional.
The subject of series [25] is NCI-H460. The experiment in a line: Antiproliferative activity against human H460 cells at 700 nM after 48 hrs by propidium iodide staining based fluorometry relative to control. The class given is functional.
For series [26], the system named is ACHN. Put plainly: Antiproliferative activity against human ACHN cells at 500 nM after 48 hrs by propidium iodide staining based fluorometry relative to control. Type of series: functional.
Series [27] concerns HCT-116. Put plainly: Antiproliferative activity against human HCT116 cells at 500 nM after 48 hrs by propidium iodide staining based fluorometry relative to control. Type of series: functional.
The test system of series [28] is Calu-1. Put plainly: Antiproliferative activity against human Calu1 cells at 500 nM after 48 hrs by propidium iodide staining based fluorometry relative to control. The class given is functional.
The test system of series [29] is PANC-1. The experiment in a line: Antiproliferative activity against human PANC1 cells at 500 nM after 48 hrs by propidium iodide staining based fluorometry relative to control. Type of series: functional.
Series [30] has as its system NCI-H460. The experiment in a line: Antiproliferative activity against human H460 cells at 500 nM after 48 hrs by propidium iodide staining based fluorometry relative to control. The class given is functional.

Active and inactive are the calls of the source. No cut-off for these calls is given here. Bounds are passed on as bounds.

In general, IC50 refers to the midpoint of a concentration-inhibition curve. Usually inhibition stands for the percentage by which the read-out fell short of the control. Take `Cn1c(=O)c2c(c3ccccc31)OC(N)=C(C#N)C2c1cccc([N+](=O)[O-])c1` (stereo not given): the Activity with THP-1 (Homo sapiens) [1] is 43%; in series [2], 65%; in series [4], 53%; in series [12] it was 65%; with MIA PaCa-2 it was 70%; in the series with ACHN (Homo sapiens) [13] it was 83%. Further, the results for the Activity in the series with ACHN (Homo sapiens) [16], in the series on A-549 (Homo sapiens) and in the series on THP-1 (Homo sapiens) [18] were 79%, 71% and 79%, respectively. Further, the IC50 with PBMC stood at 200 nM; in the series with THP-1 [3] it was 250 nM; in the series with PANC-1 [5] it was 2500 nM; in the series on ACHN [6] it was 1600 nM; in the series with THP-1 [7], 300 nM; in the series on NCI-H460 [10], 1900 nM. Moreover, the IC50 in the series on Calu-1 [11] was 1100 nM; with THP-1 [15], more than 10000 nM; in the series on HCT-116 [19], 6600 nM. Besides, the inhibition entry in the series with PBMC was “Dose-dependent effect”. Further, the values for the inhibition at 1 µM in the series with THP-1 [8] and in the series with THP-1 [17] were 11% and 0%, respectively. Also, the inhibition at 10 µM in the series on THP-1 [9] stood at 0%; in the series on THP-1 [14] it was 79%.

In the case of `Cn1c(=O)c2c(c3ccccc31)OC(N)=C(C#N)C2c1ccccc1` (stereo not given), the Activity in the series with THP-1 (Homo sapiens) [1] was found to be 0%; in series [4], 0%; in series [12], 45%; with MIA PaCa-2, 41%; in the series on ACHN (Homo sapiens) [16], 61%; with ACHN [20] it was 82%. The Activity in the series with THP-1 (Homo sapiens) [18] is 66%. Further, the inhibition entry in the series on PBMC was “inactive”. In addition, the concentration for half-maximal inhibition (IC50) in the series with THP-1 [3] is less than 30 nM; with PANC-1 [5] it was 1500 nM; with ACHN [6], 2800 nM; in the series on THP-1 [7] it was 4900 nM; in the series on NCI-H460 [10], 1300 nM; in the series with Calu-1 [11] it was 1200 nM. For the same compound, the IC50 in the series on THP-1 [15] was more than 10000 nM; with HCT-116 [19], 1000 nM. Further, the inhibition at 1 µM in the series on THP-1 [8] and with THP-1 [17] was 0% throughout. In addition, the inhibition at 10 µM turned out to be 0% in the series with THP-1 [9] and 66% in the series with THP-1 [14].

For the compound `CN1CC[C@H](c2c(O)cc(O)c3c(=O)cc(-c4ccccc4Cl)oc23)[C@H](O)C1` [ALVOCIDIB], the Activity in the series with ACHN [21] came to 71%; in the series with PANC-1 [22], 78%; with Calu-1 [23], 74%; in the series on HCT-116 [24], 71%; in the series with NCI-H460 [25], 88%.

On to `Nc1ccn([C@@H]2O[C@H](CO)[C@@H](O)C2(F)F)c(=O)n1` [GEMCITABINE], for which the Activity worked out at 73% in the series with ACHN [26]; 73% with HCT-116 [27]; 79% in the series on Calu-1 [28]; 74% in the series with PANC-1 [29]; 71% in the series with NCI-H460 [30].

Consider `Cn1c(=O)c2c(c3ccccc31)OC(N)=C(C#N)C2c1cccc(Br)c1` (stereo not given), for which the Activity in the series with THP-1 (Homo sapiens) [1] is 38%; in series [2], 54%; in series [4] it was 45%; in series [12], 61%; in the series on MIA PaCa-2, 70%; in the series on ACHN (Homo sapiens) [13], 75%. Further, the Activity in the series with ACHN (Homo sapiens) [16] is recorded as 73%; in the series on A-549 (Homo sapiens), 78%; in the series on THP-1 (Homo sapiens) [18], 82%. In addition, the IC50 in the series with PBMC worked out at 500 nM; with THP-1 [3], 80 nM; in the series on PANC-1 [5], 800 nM; in the series on ACHN [6], 900 nM; in the series with THP-1 [7], 500 nM; with NCI-H460 [10] it was 800 nM. The IC50 with Calu-1 [11] was 800 nM; in the series on THP-1 [15] it was 10000 nM; with HCT-116 [19], 900 nM. Further, the inhibition at 1 µM stood at 2% in the series with THP-1 [8] and 0% in the series on THP-1 [17]. The figures for the inhibition at 10 µM in the series with THP-1 [9] and in the series on THP-1 [14] were 0% and 82%, respectively.
